Entries after “also recorded” stand apart in the source; their conditions may differ.
Key:
Format in all cases: cell-based
[1] = test system: human malignant U373 glioma cells; experiment: Uptake/staining of cells by FITC-labelled conjugates (fluorescence microscopy, CLSM, FACS, semi-thin sections); settings: 260 μM
Experimental: Fluorescence was measured in a Becton Dickinson FACSCalibur. […] The investigations were performed in triplicate.
(§1) For CT and FACS human U373 glioma cells were grown under the same conditions in 75 cm^2 culture flasks (Corning Costar, Bodenheim, Germany) (70% confluency). Accutase™ (PAA laboratories, Pasching, Austria) was added to achieve detachment of the cells which were harvested and subsequently aliquoted into Eppendorf tubes (6×10^6 cells per tube). As in the investigations performed by fluorescence microscopy, the cells in the first tube served as a control (PBS only). The cells in the other tubes were incubated with 260 μM Ultravist, 260 μM TIBA in PBS and 26 μM, 260 μM and 2.6 mM conjugates 1-4 in PBS. After a 20 minute incubation period at 37° C. in an atmosphere of 5% CO2, the cells were washed three times in PBS and centrifuged at 800 rpm for 5 minutes.
The FACS analysis was performed as described under 1.4.
(§2) The human malignant U373 and LN18 glioma cells were cultivated in 75 cm^2 culture flasks (Corning Costar) (70% confluency) under the conditions as described under 1.4, detached from the flask bottom with Accutase™ (PAA Laboratories) and in the following distributed on Eppendorf tubes (Eppendorf, Hamburg, Germany) (6×10^6 per tube). The cells in the first tube serve as a control (only PBS buffer only). The cells in the other ten tubes were each incubated with benzoic acid (BA), monoiodobenzoic acid (MIBA) or diiodobenzoic acid (DIBA) alone (260 μM), conjugate 3 alone (260 μM), conjugate 3 plus either BA, MIBA or DIBA (260 μM), respectively, and the conjugates 9, 10, and 11 alone. (260 μM).
(§3) After an incubation of 20 minutes at 37° C./5% CO2 the cells were washed three times with PBS buffer and centrifuged at 800 rpm (rounds per minute) for 5 minutes. The fluorescence was measured in Becton Dickinson FACSCalibur as described under 1.4. The computer tomography was performed as described under 1.5.1. The examinations were repeated two times.
(§4) For the CT and FACS examinations human LN-18 and U373 glioma cells were cultivated in 75 cm^2 culture flasks (Corning Costar) (70% confluency) (conditions as described under 1.4). Accutase™ (PAA Laboratories) was added to detach the cells from the bottom of the culture flasks. The cells were collected and then distributed on Eppendorf tubes (6×10^6 cells per tube). The cells in the first two tubes serve as a control (in each case only PBS, LN18 and U373 glioma cells, native). The cells in the other tubes (in each case LN18 and U373 glioma cells) were incubated with a 260 μM or 2.6 mM solution of the conjugate 12 for 20 minutes at 37° C. and 5% CO2 and in the following washed for three times with PBS buffer and centrifuged for 5 minutes with 800 rpm (rounds per minute). For a small amount of the cells it was tested by the MMT test (see 1.4) how many of the cells were still viable. The computer tomography of the cell centrifuges was performed with the Somatom Sensation 16 (Siemens).
(§5) The FACS analysis was performed as described under 1.4. The assay was repeated two times.
For the CT and FACS examinations human LN18 and U373 glioma cells were cultivated in 75 cm^2 culture flasks (70% confluency) (conditions as described under section 1). Accutase™ (PAA Laboratories) was added to detach the cell from the culture bottom. The cells were collected and then distributed on Eppendorf-tubes (6×10^6 cells per tube). […] The next three tubes were used for the coincubation of the cells either with trichlorobenzoic acid (TCBA), trifluorobenzoic acid (TFBA) or tribromophenyl Isocyanat (TBPI) and the NLS-FITC-conjugate 3 (260 μM). As control cells were used which were only either incubated with CIBA, FIBA, TBPI (in each case 260 μM in PBS) or with PBS-buffer (native control) alone. […] The computer tomography and FACS analysis of the cell centrifuges were performed as described in 1.5.1 or 1.4, respectively for three times. […]

[2] = test system: human malignant U373 glioma cells; experiment: Computer tomography, signal density of cell pellets; settings: 260 μM, 20 min
Experimental: as §1
The inner ear spiral CT protocol consisted of: tube voltage 120 KV, effective mAs 550, time of imaging TI: 1.5, SL 0.75/0.75/4.5, FOV: 50 0/52, kernel: U70, window: intervertebral disc.
3D-images were obtained using InSpace Software (Syngo CT 2006G) (Siemens AG, Erlangen, Germany).
as §3, with “times. […]” for “times.”
An Orbita CT spiral was used: tube voltage 120 KV, effective mAs 550, time of imaging TI: 1.5, SL 0.75/0.75/4.5, FOV: 50 0/52, GT: 0.0, kernel: U70, window: intervertebral disc. 3D images were made with the InSpace Software (Syngo CT 2006G) (Siemens AG, Erlangen, Germany). […]

[3] = test system: human malignant LN18 glioma cells; experiment: Cell viability / cell death (annexin-V-Alexa 568 binding, propidium iodide, FACS scatter morphology); settings: 260 μM, 20 min, substance alone
Experimental: All measurements were performed on living, non-fixed cells. […] All measurements were performed on living cells. […] All measurements were performed on living cells in triplicates. […] All measurements were performed on living cells.

[4] = test system: human malignant LN18 glioma cells; experiment: Uptake/staining of cells by FITC-labelled conjugates (CLSM, FACS, semi-thin sections); settings: 260 μM; for nuclear staining of cells (CLSM), in words: 20 min; for heavily stained cells: FIGS. 8, 13-16; for staining of nucleoli in semi-thin sections (about 0.4 μm): after incubation
Experimental: as §2
as §3, with “times. […]” for “times.”
as §5
For the CT and FACS examinations human LN18 and U373 glioma cells were cultivated in 75 cm^2 culture flasks (70% confluency) (conditions as described under section 1). Accutase™ (PAA Laboratories) was added to detach the cell from the culture bottom. The cells were collected and then distributed on Eppendorf-tubes (6×10^6 cells per tube). […] The next three tubes were used for the coincubation of the cells either with trichlorobenzoic acid (TCBA), trifluorobenzoic acid (TFBA) or tribromophenyl Isocyanat (TBPI) and the NLS-FITC-conjugate 3 (260 μM). As control cells were used which were only either incubated with CIBA, FIBA, TBPI (in each case 260 μM in PBS) or with PBS-buffer (native control) alone. […] The computer tomography and FACS analysis of the cell centrifuges were performed as described in 1.5.1 or 1.4, respectively for three times.
All measurements were performed on living cells.
All measurements were performed on living cells in triplicates.
A part of the cells which were stained for the FACS analysis, was fixed by paraformaldehyl with 2% Agar, dehydrogenized in ethanol, embedded in Lowicryl K4M (Polysciences, Eppelheim, Germany) and according to the information of the manufacturer UV-polymerised at room temperature. Semi-thin sections (about 0.4 μm) were cut and evaluated by means of fluorescence microscopy.

[5] = test system: human malignant LN18 glioma cells; experiment: Computer tomography, signal density of cell centrifugates; settings: 260 μM, 20 min
Experimental: as §4, with “After an incubation of 20 minutes at 37° C./5% CO2 the cells were washed three times with PBS buffer and centrifuged at 800 rpm (rounds per minute) for 5 minutes. The fluorescence was measured in Becton Dickinson FACSCalibur as described under 1.4. The computer tomography was performed as described under 1.5.1. The examinations were repeated two times. For the” for “For the”, “16 (Siemens). An Orbita CT spiral was used: tube voltage 120 KV, effective mAs 550, time of imaging TI: 1.5, SL 0.75/0.75/4.5, FOV: 50 0/52, GT: 0.0, kernel: U70, window: intervertebral disc. 3D images were made with the InSpace Software (Syngo CT 2006G) (Siemens AG, Erlangen, Germany). […] Accutase™ (PAA Laboratories) was added to detach the cell from the culture bottom. The cells were collected and then distributed on Eppendorf-tubes (6×10^6 cells per tube).” for “16 (Siemens).”

With “PKKKRKVK(FITC)GGK(TBPI) (PKKKRKVKGGK; FITC, GGK linker, TBPI) [conjugate 15, FITC-labelled tribromophenyl isocyanate-NLS-conjugate]” the “cells strongly stained by FITC, FACS histogram” value (from here on “cells strongly stained by FITC”) [1] was “clear increase of the cells which are strongly stained by FITC”, the “CT signal density of cell pellets” value [2] was “did not result in an increase of the signal density” and the “cell death / vitality (annexin-V-Alexa 568, propidium iodide)” value (“cell death / vitality” below) [3] was “signs of cell death”. For the same substance, the “cell death / vitality” value ([3]; listed as K15) was “Alexa-annexin binds to the surface of the cells”, the “cells strongly stained by FITC” value [4] was “clear increase of the cells which are strongly stained by FITC” and the “nuclear staining of cells (CLSM), in words” value (“nuclear staining of cells” below) ([4]; listed as K15) was “strong staining of the nucleus in almost all cells; also recorded: nuclei of the LN18 glioma cells accumulate”. The heavily stained cells [4] was 78%, the “staining of nucleoli in semi-thin sections (about 0.4 μm)” value (shortened to “staining of nucleoli”) [4] was “strongly stained; also recorded: accumulate in the nucleoli” and the “CT signal density of cell centrifugates” value [5] was “did not result in an increase of the signal density”.

“PKKKRKVK(FITC)GGK(TCBA) (PKKKRKVKGGK; FITC, GGK linker, TCBA) [conjugate 14, FITC-labelled NLS with trichlorobenzoic acid]” was tested, and the “cells strongly stained by FITC” value [1] was “shift of the histogram peak to the right”, the “CT signal density of cell pellets” value [2] was “did not result in an increase of the signal density” and the “cell death / vitality” value [3] was “dead and signs of cell death”. For the same substance, the “cells strongly stained by FITC” value [4] was “shift of the histogram peak to the right”, the “nuclear staining of cells” value [4] was “almost all nuclei are stained” and the heavily stained cells [4] was 78%. The “staining of nucleoli” value [4] was “accumulate in the nucleoli” and the “CT signal density of cell centrifugates” value [5] was “did not result in an increase of the signal density”.

“PKKKRKVK(FITC)GGK(TFBA) (PKKKRKVKGGK; FITC, GGK linker, TFBA) [conjugate 13, FITC-labelled NLS with trifluorobenzoic acid]” was tested, and the “cells strongly stained by FITC” value [1] was “shift of the histogram peak to the right”, the “CT signal density of cell pellets” value [2] was “did not result in an increase of the signal density” and the “cell death / vitality” value [3] was “no longer vital; also recorded: signs of cell death”. The “cells strongly stained by FITC” value [4] was “shift of the histogram peak to the right”, the “nuclear staining of cells” value [4] was “stains a large number of cells in the nucleus” and the heavily stained cells [4] was 78%. The “staining of nucleoli” value [4] was “accumulate in the nucleoli” and the “CT signal density of cell centrifugates” value [5] was “did not result in an increase of the signal density”.
